The values that follow are results of earlier work, collected in patent US9085576B2 (AMGEN INC., priority 2013, dated 2015).

Data set [1] concerns the target BACE1 (Homo sapiens (Human), UniProt P56817). The following applies: cited from earlier work.
In data set [2] the test system is BACE1. As to conditions: animals, orally available; cited from earlier work.
For data set [3], the system named is pigment epithelium of the rat's eye. The following applies: higher compound dose given for three months; cited from earlier work.

Sequence of BACE1 (Homo sapiens (Human), UniProt P56817) (P56817 46-501): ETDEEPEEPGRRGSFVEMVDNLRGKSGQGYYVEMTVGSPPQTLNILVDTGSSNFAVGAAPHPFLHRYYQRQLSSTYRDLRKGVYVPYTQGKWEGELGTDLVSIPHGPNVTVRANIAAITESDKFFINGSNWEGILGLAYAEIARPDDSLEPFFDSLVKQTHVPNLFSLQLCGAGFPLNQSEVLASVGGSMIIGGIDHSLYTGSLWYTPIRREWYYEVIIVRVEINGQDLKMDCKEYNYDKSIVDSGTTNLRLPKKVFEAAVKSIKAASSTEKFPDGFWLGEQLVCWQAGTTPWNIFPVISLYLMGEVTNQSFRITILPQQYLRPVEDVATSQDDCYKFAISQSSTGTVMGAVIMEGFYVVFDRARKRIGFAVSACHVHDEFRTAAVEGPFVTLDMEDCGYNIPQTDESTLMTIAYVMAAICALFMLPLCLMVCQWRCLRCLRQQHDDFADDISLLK

In the case of `C[C@@]1(c2cc(-c3cncnc3)c(F)cc2F)CCSC(N)=N1` [LY2811376, (S)-4-(2,4-difluoro-5-pyrimidin-5-yl-phenyl)-4-methyl-5,6-dihydro-4H-[1,3]thiazin-2-ylamine], in data set [1] (healthy volunteers, oral dosing of 30 or 90 mg), the “Aβ reductions in lumbar CSF” value is “Prominent and long-lasting Aβ reductions”. For the same compound, the safety and tolerability result in data set [1] (healthy volunteers) was “safe and well tolerated”. In data set [2], the Aβ-lowering effects entry is “profound Aβ-lowering effects”.

`C[C@@]1(c2cc(-c3cncnc3)c(F)cc2F)CCSC(N)=N1` [LY 2811376]: the eye assessments entry in data set [1] (people of the terminated Ph I dosing trial) is “did not show any abnormalities”. Also, the eye toxicity finding entry in data set [3] is “damaged the pigment epithelium of the rat's eye”.
